In paper PMC11887051, “Discovery of ONO-2920632 (VU6011887): A Highly Selective and CNS Penetrant TREK-2 (TWIK-Related K+ Channel 2) Preferring Activator In Vivo Tool Compound” (ACS Chemical Neuroscience, 2025):
Like-named read-outs stand apart in the source and are kept apart here.

Columns and labels:
[1] = mouse PO PK study (C57BL/6); type: in vivo; conditions: 3 mg/kg PO; for concentration at 2 h: C57BL/6, mouse, po
Protocol: Plasma and brain tissue samples originating from in vivo studies were analyzed by electrospray ionization using an AB Sciex Q-TRAP 5500 (Foster City, CA) that was coupled to a Shimadzu LC-20AD pump (Columbia, MD) and a Leap Technologies CTC PAL auto-sampler (Carrboro, NC). Analytes were separated by gradient elution using a C18 column (3 x 50 mm, 3 mm; Fortis Technologies Ltd, Cheshire, UK) that was thermostated at 40 °C. HPLC mobile phase A was 0.1% formic acid in water (pH unadjusted); mobile phase B was 0.1% formic acid in acetonitrile (pH […]
min, with an isocratic hold for 0.5 min, before transitioning to 10% B over 0.05 min. The column was re-equilibrated (1 min) before the next sample injection. The total run time was 2.55 min, and the HPLC flow rate was 0.5 ml/min. The source temperature was set at 500 °C, and mass spectral analyses were performed using a Turbo-Ion spray source in positive ionization mode (5.0-kV spray voltage) and using multiple-reaction monitoring of transitions specific for the analytes. All data were analyzed using AB Sciex Analyst 1.5.1 software.
Brain plasma concentration ratio (Kp) was calculated by dividing brain concentration by plasma concentration for each animal. Unbound brain to unbound plasma concentration ratio (Kp,uu) is calculated using the following formula: Kp,uu = (Brain ng/g x brain fu)/(plasma ng/ml x plasma fu).
For determination of the plasma concentration-time profile, compounds were formulated in methyl cellulose and administered as a 3 mg/kg PO dose to male C57BL/6 mouse or SD rat (n = 2). For the same determination, compounds were formulated in HP-β-CD and administered as a 0.1 mg/kg IV dose to male beagle dog (n = 2).
Plasma samples originating from in vivo studies were analyzed by electrospray ionization using a Q-TRAP 5500 (AB Sciex) that was coupled to a Prominence UFLC XR (Shimadzu Corporation).
Analytes were separated by gradient elution using a Shim-pack XR-ODS II (2 x 75 mm, 2.2μm, Shimadzu Corporation) that was thermostated at 40 °C. HPLC mobile phase A was 5 mM ammonium acetate containing 0.2% formic acid in water (pH unadjusted); mobile phase B was […]
hold for 1.5 min, before transitioning to 10% B over 0.1 min. The column was re-equilibrated (0.9 min) before the next sample injection. The total run time was 4.0 min, and the HPLC flow rate was 0.5 ml/min. The source temperature was set at 600 °C, and mass spectral analyses were performed using a Turbo-Ion spray source in positive ionization mode and using multiple-reaction

[2] = biological target: Bradykinin B2 (Homo sapiens, UniProt P30411); assay: Eurofins Lead Profiling radioligand binding; conditions: title: 30 μM
[3] = biological target: Dopamine D3 (Homo sapiens, UniProt P35462); assay: Eurofins Lead Profiling radioligand binding; conditions: title: 30 μM
[4] = test system: GABAA, Flunitrazepam, Central; assay: Eurofins Lead Profiling radioligand binding; parameters: species or system Rat; conditions: title: 30 μM
[5] = biological target: GABAB1A (Homo sapiens, UniProt Q9UBS5); assay: Eurofins Lead Profiling radioligand binding; conditions: title: 30 μM
[6] = test system: Glutamate, Kainate; assay: Eurofins Lead Profiling radioligand binding; parameters: species or system Rat; conditions: title: 30 μM
[7] = biological target: Prostanoid EP4 (Homo sapiens, UniProt P35408); assay: Eurofins Lead Profiling radioligand binding; conditions: title: 30 μM
[8] = test system: Sodium Channel, Site 2; assay: Eurofins Lead Profiling radioligand binding; parameters: species or system Rat; conditions: title: 30 μM

Prostanoid EP4, sequence (P35408 whole entry): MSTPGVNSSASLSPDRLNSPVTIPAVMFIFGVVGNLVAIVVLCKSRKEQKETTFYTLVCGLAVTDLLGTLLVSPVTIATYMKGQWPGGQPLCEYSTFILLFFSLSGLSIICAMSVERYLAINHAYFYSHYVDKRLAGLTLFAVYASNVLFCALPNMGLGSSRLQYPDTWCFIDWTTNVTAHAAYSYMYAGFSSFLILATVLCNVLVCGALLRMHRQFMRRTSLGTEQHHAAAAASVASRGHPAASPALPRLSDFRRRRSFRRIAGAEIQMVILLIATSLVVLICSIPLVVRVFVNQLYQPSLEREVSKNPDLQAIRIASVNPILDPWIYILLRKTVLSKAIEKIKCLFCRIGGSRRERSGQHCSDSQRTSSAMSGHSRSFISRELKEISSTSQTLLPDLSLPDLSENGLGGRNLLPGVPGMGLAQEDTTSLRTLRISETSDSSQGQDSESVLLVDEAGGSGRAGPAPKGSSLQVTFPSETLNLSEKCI
Bradykinin B2, sequence (P30411 whole entry): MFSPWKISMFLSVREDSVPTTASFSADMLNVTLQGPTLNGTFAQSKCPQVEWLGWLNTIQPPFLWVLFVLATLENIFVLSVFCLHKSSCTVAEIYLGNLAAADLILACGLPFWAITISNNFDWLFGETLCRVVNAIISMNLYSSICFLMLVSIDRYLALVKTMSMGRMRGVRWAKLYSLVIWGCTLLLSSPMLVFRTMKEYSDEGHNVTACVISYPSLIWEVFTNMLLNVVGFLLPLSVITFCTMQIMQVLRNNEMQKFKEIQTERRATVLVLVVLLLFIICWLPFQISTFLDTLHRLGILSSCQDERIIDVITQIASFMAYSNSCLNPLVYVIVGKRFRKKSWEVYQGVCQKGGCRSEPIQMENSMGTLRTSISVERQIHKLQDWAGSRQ
GABAB1A, sequence (Q9UBS5 15-961 limits assumed): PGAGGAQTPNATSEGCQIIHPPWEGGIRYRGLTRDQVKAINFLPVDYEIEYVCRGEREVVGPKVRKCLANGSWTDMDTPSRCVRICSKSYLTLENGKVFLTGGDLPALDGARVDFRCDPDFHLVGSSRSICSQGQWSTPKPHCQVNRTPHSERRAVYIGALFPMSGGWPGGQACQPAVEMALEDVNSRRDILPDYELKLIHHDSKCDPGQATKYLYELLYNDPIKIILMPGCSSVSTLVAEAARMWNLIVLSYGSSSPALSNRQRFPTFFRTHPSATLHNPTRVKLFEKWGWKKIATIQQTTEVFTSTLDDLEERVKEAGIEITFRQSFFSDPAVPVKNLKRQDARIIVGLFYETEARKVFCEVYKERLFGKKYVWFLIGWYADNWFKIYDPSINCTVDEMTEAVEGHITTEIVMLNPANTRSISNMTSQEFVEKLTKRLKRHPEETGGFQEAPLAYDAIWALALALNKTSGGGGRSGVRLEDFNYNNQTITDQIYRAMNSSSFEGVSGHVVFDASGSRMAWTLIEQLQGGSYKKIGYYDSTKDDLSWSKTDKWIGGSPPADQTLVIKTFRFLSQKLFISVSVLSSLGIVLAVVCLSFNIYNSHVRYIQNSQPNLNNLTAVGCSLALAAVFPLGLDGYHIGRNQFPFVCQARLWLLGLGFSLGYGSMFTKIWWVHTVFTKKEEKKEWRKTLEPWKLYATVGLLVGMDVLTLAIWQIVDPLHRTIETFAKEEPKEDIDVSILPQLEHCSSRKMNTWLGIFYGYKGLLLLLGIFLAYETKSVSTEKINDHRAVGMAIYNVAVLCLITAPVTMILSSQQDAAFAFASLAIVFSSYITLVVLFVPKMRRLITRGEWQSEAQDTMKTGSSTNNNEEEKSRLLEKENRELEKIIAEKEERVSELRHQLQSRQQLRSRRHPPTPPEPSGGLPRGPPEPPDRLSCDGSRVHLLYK
Dopamine D3, sequence (P35462 whole entry): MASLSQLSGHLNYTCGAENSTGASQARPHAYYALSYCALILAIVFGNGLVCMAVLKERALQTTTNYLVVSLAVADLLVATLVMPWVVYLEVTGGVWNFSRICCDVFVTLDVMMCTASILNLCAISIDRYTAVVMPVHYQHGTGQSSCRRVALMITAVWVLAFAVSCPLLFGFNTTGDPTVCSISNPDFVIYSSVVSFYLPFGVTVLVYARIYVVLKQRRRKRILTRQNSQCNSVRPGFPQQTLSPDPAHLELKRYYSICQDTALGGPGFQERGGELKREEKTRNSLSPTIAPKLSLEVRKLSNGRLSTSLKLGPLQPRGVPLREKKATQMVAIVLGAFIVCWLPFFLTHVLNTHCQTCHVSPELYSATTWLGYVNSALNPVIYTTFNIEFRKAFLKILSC

O=C(NCc1ccc(OC(F)(F)F)cc1F)c1ccc2ncnn2c1 [Compound 19b]
total brain concentration ([1]; 2 h, 3 mg/kg): ~3 µM
concentration at 2 h ([1]; male, CSF, 3 mg/kg, 2 h, read-out: CSF level): 220 nM
concentration at 2 h ([1]; male, brain, 3 mg/kg, 2 h, read-out: free brain level): 920 nM
concentration at 2 h ([1]; male, brain, 3 mg/kg, 2 h, read-out: total brain concentration): 3200 nM
Cmax ([1]; male, plasma, C57BL/6 mice): 10500 nM
Tmax ([1]; male, plasma, C57BL/6 mice): 3.8 h
half-life ([1]; male, plasma, C57BL/6 mice): 19 h
inhibition at 10 µM [2]: 5%
inhibition [3]: 13%
% Inhibition at 10 µM [4]: 0%
inhibition [5]: -1%
% Inhibition at 10 µM [6]: 13%
inhibition [7]: 14%
% Inhibition at 10 µM [8]: 15%
